Legend:
BAK [1] = target: T1, BAK (Homo sapiens, UniProt Q16611); assay: ligand-based 1D-NMR, […] 2D-NMR titration, competitive TR-FRET, nanoDSF; assay type: binding
T1 sequence (Q16611 15-186): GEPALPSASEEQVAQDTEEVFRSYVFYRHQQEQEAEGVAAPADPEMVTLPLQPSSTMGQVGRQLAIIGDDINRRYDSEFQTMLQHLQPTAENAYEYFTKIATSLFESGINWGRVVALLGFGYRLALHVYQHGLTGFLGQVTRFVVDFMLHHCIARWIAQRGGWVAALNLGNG

BAK [2] = target: T1, BAK; assay: ligand-based 1D-NMR; assay type: binding

Row | IC50 (BAK [1]) [mM] | IC50 (BAK [2]) [µM] | Compound
1 | 1.97 |  | Cc1ccc(C)c2sc(N)nc12 [A3]
2 |  | 570 | Cc1ccc(Cl)c2sc(N)nc12 [H6, SJ572946]
